Measurements published in patent publication US8501715B2, “Oxidized lipids and uses thereof in the treatment of inflammatory diseases and disorders” (Vascular Biogenics Ltd., priority 2003, dated 2013).

Columns and labels:
[1] = FPLC analysis of triglyceride and cholesterol content of VLDL; type: in vivo; conditions: oral 1 mg/mouse, 3 sets over 12 weeks; measured 9 weeks from t=0; FPLC of pooled blood
Experimental: 24.5 weeks old Apo-E KO mice were fed 1 mg/mouse L-ALLE (triangle) (n=11), D-ALLE (inverted triangle) (n=9) or POVPC (square) (n=10) every other day for 5 days, at 4 weeks intervals over a 12 weeks period. Control mice were fed an identical volume (0.2 ml) and regimen of PBS (circle) (n=10). Triglyceride content (Tg, mg/ml) was measured 9 weeks from t=0, by enzymatic colorimetric method in the VLDL fractions following separation of pooled blood samples on FPLC, as described in the materials and methods section that follows.
24.5 weeks old Apo-E KO mice were fed 1 mg/mouse L-ALLE (triangle) (n=11), D-ALLE (inverted triangle) (n=9) or POVPC (square) (n=10) every other day for 5 days, at 4 weeks intervals over a 12 weeks period. Control mice were fed an identical volume (0.2 ml) and regimen of PBS (circle) (n=10). Cholesterol content (Cholesterol, mg/ml) was measured 9 weeks from t=0, by enzymatic colorimetric method in the VLDL fractions following separation of pooled blood samples on FPLC, as described in the materials and methods section that follows.
FPLC Analysis: Fast Protein Liquid Chromatography analysis of cholesterol and lipid content of lipoproteins was performed using Superose 6 HR 10/30 column (Amersham Pharmacia Biotech, Inc, Peapack, N.J.) on a FPLC system (Pharmacia LKB. FRAC-200, Pharmacia, Peapack, N.J.). A minimum sample volume of 300 μl (blood pooled from 3 mice was diluted 1:2 and filtered before loading) was required in the sampling vial for the automatic sampler to completely fill the 200 μl sample loop. Fractions 10-40 were collected, each fraction contained 0.5 ml. A 250 μl sample from each fraction was mixed with freshly prepared cholesterol reagent or triglyceride reagent respectively, incubated for 5 minutes at 37° C. and assayed spectrophotometrically at 500 nm.
Their effect on the triglyceride and cholesterol fractions of VLDL was also monitored by FPLC. […] male, 24.5 week old Apo-E KO mice were divided into 5 groups. In group A (n=11) mice were fed with 1 mg/mouse L-ALLE suspended in 0.2 ml PBS, administered by gavage, as described above, every other day for 5 days. In group B (n=9) mice were fed with 1 mg/mouse D-ALLE suspended in 0.2 ml PBS, administered per os, as described above, every other day for 5 days. In group C (n=10) mice were fed with 1 mg/mouse POVPC suspended in 0.2 ml PBS, administered by gavage, as described above, every other day for 5 days. […]
(§1) Mice were bled prior to feeding (Time 0), after the 2nd set of feeding and at the conclusion of the experiment (End) for determination of lipid profile, lipid fractionation and plasma collection. Atherosclerosis was assessed as described above in the aorta sinus and aorta. […] Weight was recorded every 2 weeks throughout the experiment. […]

Apo-E KO mice [2] = assay: Aorta lesion (% from total area); type: in vivo; conditions: oral 1 mg/mouse, 5 feedings every other day every 4 weeks over 12 weeks; 24.5 week old mice; End
Description: Assessment of Atherosclerosis: Quantification of atherosclerotic fatty streak lesions was done by calculating the lesion size in the aortic sinus as previously described (Paigen et al. Quantitative assessment of atherosclerotic lesions in mice. Atherosclerosis 1987; 68: […]) and by calculating the lesion size in the aorta. Briefly, after perfusion with saline Tris EDTA, the heart and the aorta were removed from the animals and the peripheral fat cleaned carefully. The upper section of the heart was embedded in OCT medium (10.24% w/w polyvinyl alcohol; 4.26% w/w polyethylene glycol; 85.50 w/w nonreactive ingredients) and frozen. […] Sections were evaluated for fatty streak lesions after staining with oil-red O. Lesion areas per section were scored on a grid (Rubin et al. Inhibition of early atherogenesis in transgenic mice by human apoplipoprotein A-I. Nature 1991; 353: 265-267) by an observer counting unidentified, numbered specimens. […]
Their effect on the triglyceride and cholesterol fractions of VLDL was also monitored by FPLC. […]
as §1

Apo-E KO mice [3] = assay: Assessment of atherosclerosis: lesion area in the aortic sinus; type: in vivo, mouse; conditions: oral 1 mg/mouse; for Sinus Lesion: 5 feedings every other day every 4 weeks over 12 weeks, 24.5 week old mice, End (12 weeks after first feeding); for protection from atheromatous progression: late stage, compared with lesion scores at 24.5 weeks
[4] = test system: T-cells from inguinal lymph node; assay: Proliferation assay (stimulation index) of lymph node cells exposed to Human ox-LDL; type: in vivo; conditions: oral 1 mg/mouse every other day for 5 days
Experimental: 6 week old male Apo-E KO mice were fed either 1 mg/mouse L-ALLE (L-ALLE) (n=2) or POVPC (POVPC) (n=3) in 0.2 ml PBS; or PBS alone (CONTROL) (n=3) every other day for 5 days. One week following the last feeding the mice were immunized with a single subcutaneous injection of 50 μg Human oxidized LDL antigen. 7 days later T-cells from inguinal lymph node were prepared as described in Materials and Methods section that follows, and exposed to the sensitizing Human ox-LDL antigen for in-vitro assessment of proliferation. Proliferation, indicating immune reactivity, is expressed as the ratio between incorporation of labeled thymidine into the T-cell's DNA in the presence and absence of human ox-LDL antigen (stimulation index, S.I.).
II. […]
Proliferation was assayed eight days after immunization with the oxidized LDL as follows: Spleens or lymph nodes were prepared by meshing the tissues on 100 mesh screens. […] Incomplete medium was added (10 ml), cells were centrifuge for 7 minutes at 1,700 rpm, resuspended in RPMI medium and counted in a haemocytometer at 1:20 dilution (10 μl cells+190 μl Trypan Blue). Proliferation was measured by the incorporation of [^3H]-Thymidine into DNA in triplicate samples of 100 μl of the packed cells (2.5×10^6 cells/ml) in a 96 well microtiter plate. […]

apoE(−/−) mice = conditions: administration of alpha-galactosylceramide; Tupin et al.; cited from earlier work
apoE(−/−)CD1d(−/−) mice = conditions: administration of alpha-galactosylceramide; Tupin et al.; cited from earlier work

Row | Compound | cholesterol content of VLDL [1] | triglyceride content of VLDL [1] | Aorta lesion (% from total area) (Apo-E KO mice [2]) | Sinus Lesion (Apo-E KO mice [3]) [μm^2] | protection from atheromatous progression (Apo-E KO mice [3]) | change of Stimulation Index versus PBS ([4]; then immunization with Human oxidized LDL) [%] | Stimulation Index (SI) ([4]; then s.c. immunization with Human oxidized LDL, lymph nodes one week later) | increase in lesion size (apoE(−/−) mice) [%] | Lesion size (apoE(−/−)CD1d(−/−) mice)
1 | CCCCCCCCCCCCCCCCOC[C@H](COP(=O)([O-])OCC[N+](C)(C)C)OCCCCC=O [D-ALLE, 1-hexadecyl-2-(5′-oxo-pentanyl)-sn-glycero-3-phosphocholine] | reduction | reduction | 4.5 | 245938 ± 20474 | nearly complete protection | – | – | – | –
2 | CCCCCCCCCCCCCCCCOC[C@@H](COP(=O)([O-])OCC[N+](C)(C)C)OCCCCC=O [L-ALLE, 3-hexadecyl-2-(5′-oxo-pentanyl)-sn-glycero-1-phosphocholine] | reduction | reduction | 5.4 | 233056 ± 12746 | nearly complete protection | −78 | 7.3 ± 2.3 | – | –
3 | CCCCCCCCCCCCCCCCCCCCCCCCCC(=O)N[C@@H](CO[C@H]1O[C@H](CO)[C@H](O)[C@H](O)[C@H]1O)[C@H](O)[C@H](O)CCCCCCCCCCCCCC [alpha-galactosylceramide] | – | – | – | – | – | – | – | 50 | did not affect lesion size
